US7662853B2, “Monoacetyldiacylglycerol derivative for the treatment of sepsis” (priority 2004, dated 2010)

What was measured:
T-cells = assay: Measurement of cytokine by Bio-plex in activated T-cells; assay type: cell-based; details: anti-CD3, anti-CD28 treated T-cells, 0.1, 1 μg/ml, 5 days, vs control
Experimental: Bio-plex can measure huge amount of cytokine at a time in a well. Thus, Bio-plex kit was used to quantify 8 kinds of cytokines of Th1/Th2 channels, which are secreted when T-cells are activated. Sterilized 24-well tissue culture plate (Nunc, Denmark) was treated with anti-CD3 and anti-CD28. Then, the plate was inoculated with T-cells by 2×10^6 cells/ml. […] On the 5th day, culture solutions at each different stage were recovered, followed by centrifugation. Supernatants were obtained and cytokine secreted therein was quantified by using Bio-plex kit according to the manufacturer's instruction (Bio-rad).

KIBG-5 cells = assay: Biliary cancer model in hamster (7 treatment groups); assay type: in vivo, Syrian golden hamsters; details: Compound 3 25 mg/kg/day P.O.
Experimental: Six week old female Syrian golden hamsters (Harlan, Indianapolis, […], USA) were housed in specific pathogen free unit. 5×10^5 KIBG-5 cells (Molecular therapy, Vol. 3, No. 4, pp 431-437) suspended in 100 μl of RPMI 1640 serum-free medium were intravenously injected via femoral vein. And 5×10^5 KIBG-5 cells suspended in 100 μl of RPMI 1640 serum-free medium were subcutaneously injected to the flank of the hamsters. Hamsters injected KIBG-5 were divided into following 7 groups;
1) Control group treated with RPMI medium,
2) Experimental group treated with non-modified BMSC cells (2.5×10^6) (Leukemia & Lymphoma, Vol. 44, No. 11, pp 1973-1978),
3) Experimental group treated with BMSC cells modified with Ad/ΔE1 50 MOI (Leukemia & Lymphoma, Vol. 44, No. 11, pp 1973-1978),
4) Experimental group treated with DC+ tumor lysate (5×10^6),
5) Experimental group treated with BMSC cells modified with Ad/hIL-2 50 MOI (Leukemia & Lymphoma, Vol. 44, No. 11, pp 1973-1978),
One week after the injection of cancer cells to hamsters (BMSC treated group), 2.5×10^6 of BMSC cells were injected once again to each hamster. In the case of DC+tumor lysate treated group, 5×10^6 of DC cells and tumor lysate were injected to each hamster (with subcutaneous injection or intravenous injection) at the first, second, third, forth, sixth, eighth week, followed by observation for 12 weeks.

KIGB-5 cells = assay: Biliary cancer model in hamster, Compound 3 dose groups; assay type: in vivo, Syrian golden hamsters; details: for gross findings, tumor: 4th week
Experimental: In another hand, six week old female Syrian golden hamsters were housed in specific pathogen free unit. KIGB-5 cells (5×10^5) suspended in 100 μl of RPMI 1640 serum-free medium were intravenously injected via femoral vein. […] Animals of each group were sacrificed at 4, 8, 12 weeks for pathological examination. […] At 8th week, control group observed multiple metastatic lesions in both lungs.

T-cell (T-4 and T-8) = assay: Measurement of cytokine (IL-2) by Elispot, T cell activity; assay type: cell-based, mouse; details: FIG. 1: Compound 3 1 μg/ml
Experimental: Elispot bioassay ([…] enzyme-linked immunospot assay) is a very sensitive quantification assay for detecting cytokine bound to the membrane because the bottom of each well of Elispot plates used in this assay was pre-coated with a cytokine specific antibody. Thus, Elispot assay was performed to measure the T cell activity. […] Each sample was tested in duplicate. Counting the number of IL-2 producing cells by Elispot is accomplished with Elispot reader (AID Elispot Reader System).

B16F10 cells = assay: Melanoma model in mice; assay type: in vivo, C57BL/6 mice; details: Compound 3 50 mg/kg/day P.O.
Experimental: 6 week female C57BL/6 mice (provided from Asan Institute for Life Sciences Animal Lab., Seoul, Korea) were housed in specific pathogen free unit.
B16F10 cells (2×10^4) suspended in 100 μl of RPMI 1640 serum-free medium were intravenously injected via tail vein. One week before tumor cell injection, the following 3 groups were treated.
2) Dendritic cells (DC) (5×10^5 cells/day)+tumor lysate treated group
In the case of DC+tumor lysate treated group, one week before melanoma injection, 5×10^5 DC cells mixed with tumor lysate were injected to the abdominal cavity every 1 weeks. […] As a result, gross findings at 4th week control group observed multiple metastatic lesions in both lungs.

malignant melanoma cells = assay: Cytotoxicity of T-cells activated by Compound 3 to malignant melanoma cells; assay type: cell-based; details: ratio of T-cells activated by Compound 3 to melanoma cells 100:1; FIG. 16: 1 μg/ml
[1] = system: C3H/HeN mice with CLP-induced septic shock; assay: CLP (Cecal Ligation and Puncture) test, septic shock; assay type: in vivo; details: 50 mg/kg oral
Text: Ten 7-10 week old male inbred C3H/HeN mice (20-25 g of weight) were grouped. […] Septic shock was induced by CLP model in anesthetized mice. […] Control group was orally administered PBS+5% ethanol solution.

ICR mice = assay: Toxicity test, single oral administration; assay type: in vivo; details: for Number of dead mice/Number of orally administered mice: 14 days
Experimental: (§1) Control group was treated 5% ethanol solution. IRC mice, housed in SPF facility were used as test animals. […] Weight increment rate(%)={Weight of day 14−Weight of day 0}÷{Weight of day 0}×100 [Mathematical Formula 2]

[2] = Toxicity test, single oral administration; assay type: in vivo; details: mouse, in vivo; ICR mice, oral, single dose, 14 days
Experimental: as §1

rats = assay: Long term hepatotoxicity test; assay type: in vivo; details: 100 mg/Kg body weight/day P.O. for 4 weeks
Text: At the end of 4 weeks liver histology was observed.

## CCCCC/C=C\C/C=C\CCCCCCCC(=O)OC(COC(C)=O)COC(=O)CCCCCCCCCCCCCCC (stereo not drawn) [Compound 3]
T-cells
  amounts of secreted cytokines IL-2, IL-4 and IL-5: bigger than those in a control group
KIBG-5 cells; 4 weeks after cancer cell injection
  tumor formation: no tumor were found
KIBG-5 cells; 8 weeks after cancer cell injection (i.v.)
  metastatic lung lesions: only one minute lung lesion was found
KIGB-5 cells; 10 mg/kg/day P.O.
  gross findings, tumor: no evidence of tumor
KIGB-5 cells; 25 mg/kg/day P.O.
  gross findings, tumor: no evidence of tumor
KIGB-5 cells; 50 mg/kg/day P.O.
  gross findings, tumor: no evidence of tumor
KIGB-5 cells; 8th week, 10 mg/kg/day P.O.
  metastatic lung lesions: showed tumor in the left lung
KIGB-5 cells; 8th week, 25 mg/kg/day P.O.
  metastatic lung lesions with microscope: showed one minute lesion with microscope
  metastatic lung lesions with naked eye: did not show any metastatic lung lesions with naked eye
KIGB-5 cells; 8th week, 50 mg/kg/day P.O.
  metastatic lung lesions with naked eye: did not show any metastatic lung lesions with naked eye
T-cell (T-4 and T-8); T-4 cells
  increased T-4 activity comparing to control group (IL-2 Elispot spots): 1.52 folds
T-cell (T-4 and T-8); T-8 cells
  increased T-8 activity comparing to control group (IL-2 Elispot spots): 1.46 folds
B16F10 cells; 4th week after B16F10 i.v. injection
  gross findings, metastatic lesions in the lung: no evidence of disease in the lung
B16F10 cells; observation for 6 weeks after melanoma (B16F10) injection
  Survival rate: 90%
Malignant melanoma cells
  cytotoxicity increased: 42%
[1]; 0 hour
  Survival rate: 100%
[1]; 24 hours
  Survival rate: 100%
[1]; 48 hours
  Survival rate: 100%
[1]; 72 hours
  Survival rate: 100%
[1]; 96 hours
  Survival rate: 100%
[1]; 120 hours, 50 mg/kg
  Survival rate: 100%
ICR mice; 62.5 mg/kg oral once
  Death rate: 12.5%
  Number of dead mice/Number of orally administered mice: 1/8
ICR mice; 62.5 mg/kg˜2 g/kg oral once, 14 days observation
  toxicity: No toxicity was seen
ICR mice; 125 mg/kg oral once
  Death rate: 30%
  Number of dead mice/Number of orally administered mice: 0/8
ICR mice; 250 mg/kg oral once
  Death rate: 12.5%
  Number of dead mice/Number of orally administered mice: 1/8
ICR mice; 500 mg/kg oral once
  Death rate: 22.2%
  Number of dead mice/Number of orally administered mice: 2/9
ICR mice; 1000 mg/kg oral once
  Death rate: 0%
  Number of dead mice/Number of orally administered mice: 0/9
ICR mice; 2000 mg/kg oral once
  Death rate: 0%
  Number of dead mice/Number of orally administered mice: 0/9
[2]
  LD50 at 14 days: > 2000 mg/kg
rats
  adverse effect (liver function test, lipid profile, cytochrome C-450 activity, liver histology): No significantly adverse effect was observed
